Assay results reported in PubChem BioAssay AID1963421 (Molecular Pharmacology Branch, DTP, NCI, 2024).
Where “and” joins values, the source holds several entries; their conditions need not be identical. Equal entries are not always repeated. Each block holds one compound with its values, some of them ahead of it.

Tested on: 519858-162-T-J1-PDC complex spheroid growth, % test/control
Experiment: Anticancer human tumor 519858-162-T-J1-PDC patient-derived colon adenocarcinoma cell line growth inhibition [Asc]
Settings: for viability, T/C: stronger effect = lower value
In short: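 Tumor cells were grown as complex spheroids with human endothelial cells (HUVEC) and human mesenchymal stem cells as stroma. Agents were tested alone and in combination, in half-log steps down from the clinical Cmax, or from 10 microM where Cmax was unknown.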

[1] = curve of first compound, second compound 0.00949 µM
[2] = curve of first compound, second compound 0.03 µM
[3] = curve of first compound, second compound 0.0949 µM
[4] = curve of first compound, second compound 0.3 µM
[5] = curve of first compound, second compound 0.949 µM
[6] = curve of first compound, second compound 3 µM
[7] = second compound 0.00949 µM, first compound 0.0316 µM
[8] = second compound 0.00949 µM, first compound 0.1 µM
[9] = second compound 0.00949 µM, first compound 0.316 µM
[10] = second compound 0.00949 µM, first compound 1 µM
[11] = second compound 0.03 µM, first compound 0.0316 µM
[12] = second compound 0.03 µM, first compound 0.1 µM
[13] = second compound 0.03 µM, first compound 0.316 µM
[14] = second compound 0.03 µM, first compound 1 µM
[15] = second compound 0.0949 µM, first compound 0.0316 µM
[16] = second compound 0.0949 µM, first compound 0.1 µM
[17] = second compound 0.0949 µM, first compound 0.316 µM
[18] = second compound 0.0949 µM, first compound 1 µM
[19] = second compound 0.3 µM, first compound 0.0316 µM
[20] = second compound 0.3 µM, first compound 0.1 µM
[21] = second compound 0.3 µM, first compound 0.316 µM
[22] = second compound 0.3 µM, first compound 1 µM
[23] = second compound 0.949 µM, first compound 0.0316 µM
[24] = second compound 0.949 µM, first compound 0.1 µM
[25] = second compound 0.949 µM, first compound 0.316 µM
[26] = second compound 0.949 µM, first compound 1 µM
[27] = second compound 3 µM, first compound 0.0316 µM
[28] = second compound 3 µM, first compound 0.1 µM
[29] = second compound 3 µM, first compound 0.316 µM
[30] = second compound 3 µM, first compound 1 µM
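Note: seven day drug exposure begun three days after spheroid seeding.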
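Throughout, for viability, T/C: 100% = DMSO vehicle wells and lower values mean less viable spheroid.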

- IC50 [1]: < 3.16 nM
- IC50 [2]: > 1000 nM
- IC50 [3]: > 1000 nM
- IC50 [4]: > 1000 nM
- IC50 [5]: > 1000 nM
- IC50 [6]: > 1000 nM
Structure (SMILES): CNC(C)C(=O)NC1CN(S(=O)(=O)c2cccc(S(=O)(=O)N3CCC4CCC(C(=O)NC(c5ccccc5)c5ccccc5)N4C(=O)C(NC(=O)C(C)NC)C3)c2)CCC2CCC(C(=O)NC(c3ccccc3)c3ccccc3)N2C1=O (stereo not drawn) + CCN1C(C(=O)NC23CCC(C(=O)O)(CC2)CC3)C(c2cccc(Cl)c2F)C2(C(=O)Nc3cc(Cl)ccc32)C12CCCCC2
- viability, T/C (second compound 0.00949 µM, first compound 0.00316 µM): 49.9%
- viability, T/C (second compound 0.00949 µM, first compound 0.01 µM): 104%
- viability, T/C [7]: 91.5%
- viability, T/C [8]: 64.4%
- viability, T/C [9]: 98.7%
- viability, T/C [10]: 74.6%
- viability, T/C (second compound 0.03 µM, first compound 0.00316 µM): 112%
- viability, T/C (second compound 0.03 µM, first compound 0.01 µM): 89.9%
- viability, T/C [11]: 88.3%
- viability, T/C [12]: 79%
- viability, T/C [13]: 54.9%
- viability, T/C [14]: 99%
- viability, T/C (second compound 0.0949 µM, first compound 0.00316 µM): 89.1%
- viability, T/C (second compound 0.0949 µM, first compound 0.01 µM): 73.9%
- viability, T/C [15]: 85.1%
- viability, T/C [16]: 75.4%
- viability, T/C [17]: 60.4%
- viability, T/C [18]: 96.4%
- viability, T/C (second compound 0.3 µM, first compound 0.00316 µM): 94.6%
- viability, T/C (second compound 0.3 µM, first compound 0.01 µM): 75.3%
- viability, T/C [19]: 81.2%
- viability, T/C [20]: 68.2%
- viability, T/C [21]: 74.4%
- viability, T/C [22]: 58.2%
- viability, T/C (second compound 0.949 µM, first compound 0.00316 µM): 94.3%
- viability, T/C (second compound 0.949 µM, first compound 0.01 µM): 87.4%
- viability, T/C [23]: 85.7%
- viability, T/C [24]: 70.5%
- viability, T/C [25]: 68.2%
- viability, T/C [26]: 66%
- viability, T/C (second compound 3 µM, first compound 0.00316 µM): 62%
- viability, T/C (second compound 3 µM, first compound 0.01 µM): 76.1%
- viability, T/C [27]: 72.4%
- viability, T/C [28]: 93.9%
- viability, T/C [29]: 73.2%
- viability, T/C [30]: 74%

- IC50 (curve of compound): > 10000 nM
Structure (SMILES): C=CC(=O)N1CCN(c2nc(=O)n(-c3c(C)ccnc3C(C)C)c3nc(-c4c(O)cccc4F)c(F)cc23)C(C)C1 (stereo not drawn)
- viability, T/C (compound 0.0316 µM): 97.6% and 65.2% and 101%
- viability, T/C (compound 0.1 µM): 87.3% and 70.7% and 109%
- viability, T/C (compound 0.316 µM): 105% and 85.9% and 110%
- viability, T/C (compound 1 µM): 87.3% and 95.3% and 117%
- viability, T/C (compound 3.16 µM): 82.4% and 70.7% and 96.5%
- viability, T/C (compound 10 µM): 93.6% and 72% and 104%

- IC50 [1]: 7460 nM
- IC50 [2]: > 10000 nM
- IC50 [3]: > 10000 nM
- IC50 [4]: 9030 nM
- IC50 [5]: 4550 nM
- IC50 [6]: 2790 nM
Structure (SMILES): C=C(F)C(=O)N1CCN(c2nc(OCC3CCCN3C)nc3c2CCN(c2cccc4cccc(Cl)c24)C3)CC1CC#N (stereo not drawn) + CCN1C(C(=O)NC23CCC(C(=O)O)(CC2)CC3)C(c2cccc(Cl)c2F)C2(C(=O)Nc3cc(Cl)ccc32)C12CCCCC2
- viability, T/C [7]: 114%
- viability, T/C [8]: 80.6%
- viability, T/C [9]: 84.5%
- viability, T/C [10]: 96.3%
- viability, T/C (second compound 0.00949 µM, first compound 3.16 µM): 71.7%
- viability, T/C (second compound 0.00949 µM, first compound 10 µM): 41.4%
- viability, T/C [11]: 102%
- viability, T/C [12]: 84%
- viability, T/C [13]: 78.4%
- viability, T/C [14]: 84.3%
- viability, T/C (second compound 0.03 µM, first compound 3.16 µM): 71.9%
- viability, T/C (second compound 0.03 µM, first compound 10 µM): 52.5%
- viability, T/C [15]: 126%
- viability, T/C [16]: 110%
- viability, T/C [17]: 76.2%
- viability, T/C [18]: 102%
- viability, T/C (second compound 0.0949 µM, first compound 3.16 µM): 84.7%
- viability, T/C (second compound 0.0949 µM, first compound 10 µM): 41.6%
- viability, T/C [19]: 81%
- viability, T/C [20]: 73.8%
- viability, T/C [21]: 97.7%
- viability, T/C [22]: 90.5%
- viability, T/C (second compound 0.3 µM, first compound 3.16 µM): 79.7%
- viability, T/C (second compound 0.3 µM, first compound 10 µM): 47.2%
- viability, T/C [23]: 95.5%
- viability, T/C [24]: 76.6%
- viability, T/C [25]: 96.7%
- viability, T/C [26]: 86.3%
- viability, T/C (second compound 0.949 µM, first compound 3.16 µM): 58.1%
- viability, T/C (second compound 0.949 µM, first compound 10 µM): 32.4%
- viability, T/C [27]: 74.7%
- viability, T/C [28]: 81%
- viability, T/C [29]: 82.7%
- viability, T/C [30]: 70%
- viability, T/C (second compound 3 µM, first compound 3.16 µM): 47.8%
- viability, T/C (second compound 3 µM, first compound 10 µM): 26.2%

- IC50 (curve of first compound, second compound 0.0316 µM): > 100 nM
- IC50 (curve of first compound, second compound 0.1 µM): > 100 nM
- IC50 (curve of first compound, second compound 0.316 µM): > 100 nM
- IC50 (curve of first compound, second compound 1 µM): > 100 nM
- IC50 (curve of first compound, second compound 3.16 µM): > 100 nM
- IC50 (curve of first compound, second compound 10 µM): 100 nM
Structure (SMILES): Cn1ncnc1[C@H]1c2n[nH]c(=O)c3cc(F)cc(c23)N[C@@H]1c1ccc(F)cc1 + Cc1c(S(C)(=O)=O)c(-c2cc(F)cc(N3CCN(c4ccc(NS(=O)(=O)c5ccc(NC(CCN6CCC(C(=O)OCCCP(=O)(O)O)CC6)CSc6ccccc6)c(S(=O)(=O)C(F)(F)F)c5)cc4)CC3)c2)c(-c2ccc(Cl)cc2)n1C(C)C
- viability, T/C (second compound 0.0316 µM, first compound 0.000316 µM): 119%
- viability, T/C (second compound 0.0316 µM, first compound 0.001 µM): 120%
- viability, T/C (second compound 0.0316 µM, first compound 0.00316 µM): 73%
- viability, T/C (second compound 0.0316 µM, first compound 0.01 µM): 100%
- viability, T/C (second compound 0.0316 µM, first compound 0.0316 µM): 69%
- viability, T/C (second compound 0.0316 µM, first compound 0.1 µM): 95.4%
- viability, T/C (second compound 0.1 µM, first compound 0.000316 µM): 121%
- viability, T/C (second compound 0.1 µM, first compound 0.001 µM): 78.9%
- viability, T/C (second compound 0.1 µM, first compound 0.00316 µM): 85.8%
- viability, T/C (second compound 0.1 µM, first compound 0.01 µM): 123%
- viability, T/C (second compound 0.1 µM, first compound 0.0316 µM): 76.6%
- viability, T/C (second compound 0.1 µM, first compound 0.1 µM): 54.9%
- viability, T/C (second compound 0.316 µM, first compound 0.000316 µM): 115%
- viability, T/C (second compound 0.316 µM, first compound 0.001 µM): 101%
- viability, T/C (second compound 0.316 µM, first compound 0.00316 µM): 61.3%
- viability, T/C (second compound 0.316 µM, first compound 0.01 µM): 92.9%
- viability, T/C (second compound 0.316 µM, first compound 0.0316 µM): 83.7%
- viability, T/C (second compound 0.316 µM, first compound 0.1 µM): 89.4%
- viability, T/C (second compound 1 µM, first compound 0.000316 µM): 88.8%
- viability, T/C (second compound 1 µM, first compound 0.001 µM): 76.5%
- viability, T/C (second compound 1 µM, first compound 0.00316 µM): 131%
- viability, T/C (second compound 1 µM, first compound 0.01 µM): 60.8%
- viability, T/C (second compound 1 µM, first compound 0.0316 µM): 74.6%
- viability, T/C (second compound 1 µM, first compound 0.1 µM): 90.5%
- viability, T/C (second compound 3.16 µM, first compound 0.000316 µM): 104%
- viability, T/C (second compound 3.16 µM, first compound 0.001 µM): 87.1%
- viability, T/C (second compound 3.16 µM, first compound 0.00316 µM): 83.7%
- viability, T/C (second compound 3.16 µM, first compound 0.01 µM): 75.2%
- viability, T/C (second compound 3.16 µM, first compound 0.0316 µM): 113%
- viability, T/C (second compound 3.16 µM, first compound 0.1 µM): 79.1%
- viability, T/C (second compound 10 µM, first compound 0.000316 µM): 69.5%
- viability, T/C (second compound 10 µM, first compound 0.001 µM): 95.7%
- viability, T/C (second compound 10 µM, first compound 0.00316 µM): 63.2%
- viability, T/C (second compound 10 µM, first compound 0.01 µM): 49.6%
- viability, T/C (second compound 10 µM, first compound 0.0316 µM): 61.3%
- viability, T/C (second compound 10 µM, first compound 0.1 µM): 61.4%
